The test system of one data set is Wistar-Kyoto (WKY) rats. Put plainly: Sleep-wake scoring (EEG/EMG: wake, NREM, REM) in rat model of TRD. As to conditions: 5 and 10 mg/kg, s.c. The class given is in vivo. An excerpt: Since WKY rats show decreased sensitivity to conventional monoamine-based antidepressant treatment, they are used as a model of TRD.
Male (WKY) rats (200-250 g) were implanted with electroencephalography (EEG) and electromyography (EMG) electrodes and telemetry transmitters under general anesthesia (2-5% isoflurane in Oxygen). A telemetry transmitter (HD-502, Data Sciences International) was placed in the peritoneal cavity, and the wires of the transmitter were passed through the muscle wall and then sub-dermally to the scalp to act as EEG/EMG electrodes. Two bore holes were made in the skull (Fronto-parietal coordinates; Bregma +2 mm anterior, midline +1.0 mm lateral and Lambda 0 mm, +1.5 mm lateral). The positive EEG electrode was attached to the anterior bore hole and the negative EEG electrode to the posterior bore hole. Both electrodes were secured in place using a suitable adhesive agent (Cyanoacrylate gel, RS components). […]
Animals were maintained on a 12/12 hour light dark cycle. On study days, the animals were placed in recording boxes and EEG/EMG, locomotor activity, as well as body temperature were recorded for 0.5 hours before and 24 hours after each dosing. […]
The subsequent EEG/EMG recordings were automatically scored as wake, non-REM (NREM) sleep, or REM sleep in 10 second epochs using SleepSign (Kissei Comtec, Japan). […]

The conditions of data set [1]: post-ingestion; cited from earlier work.
In a further data set the test system is subjects. The settings on record: 20 mg escitalopram; cited from earlier work.

On to `CNC1(c2ccccc2Cl)CCCCC1=O` (stereo not drawn) [ketamine], for which the “Amount of REM sleep” value with Wistar-Kyoto (WKY) rats is on record as “decreased the amount of REM sleep in a dose-dependent manner”.

Regarding `CN(C)CCC[C@@]1(c2ccc(F)cc2)OCc2cc(C#N)ccc21` [escitalopram], the “Time to peak plasma concentration” value in data set [1] is 3 to 4 h. In addition, the “Frequency of common side effects: agitation or restlessness; diarrhea; difficulty sleeping; drowsiness; dry mouth; headache; nausea; sexual difficulties; dizziness; sweating” value in the data set with subjects is “Common (~10% at 20 mg escitalopram)”.

The values are drawn from patent US20230023092A1, “TREATMENT OF DEPRESSION AND OTHER VARIOUS DISORDERS WITH PSILOCYBIN” (COMPASS […], priority 2019, published 2023).
